Measured values from US20240246944A1, “AMINO HETEROARYL COMPOUNDS AND COMPOSITIONS” (Anrui Biomedical Technology (Guangzhou) Co., Ltd., priority 2021, published 2024).
Read-outs that look alike come from different tables or passages of the source. One block for each molecule: values may come before it.

Legend:
[1] = system: IL-23 reporter (JAK2/Tyk2); experiment: IL-23 induced STAT3 QUANTI-Blue reporter assay in HEK-Blue IL-23 cells; type: cell-based
Experimental: Biological Example 2. IL-23 Induced STAT3 QUANTI-Blue in HEK-Blue™ IL-23 Cells
HEK-Blue™ IL-23 cells were prepared at 2×10^5 cells/ml for adding 5000 cell/well and incubate plates containing compounds+cells for 1 hour at 37° C. Prepare IL-23 (treatment at final conc. 0.1 ng/mL) during incubation and add 2 ul per well of prepared cytokine in media to appropriate wells. The plate was incubated for overnight at 37° C. The next day, QUANTI-Blue solution was prepared. 18 ul of QUANTI-Blue solution per well was added into a new 384-well clear flat bottom plate, followed by addition of 2 ul of induced and treated HEK-Blue cell supernatant from overnight plate. The plate was incubated at 37° C. for 2 hours and SEAP levels determined.

[2] = system: IFNγ reporter (JAK1/2); experiment: IFN-γ reporter assay in HEK-Dual IFN-γ cells; type: cell-based
Experimental: (§1) IFN-γ reporter assay. Seed HEK-Dual™ IFN-γ Cells (1-3×10^4 cells/well/[…]) to 96 cell plate with DMEM (10% HFBS+1% PS) and incubate overnight at 5% CO2&37° C. Diluent compounds in DMSO. Three times dilution and 10 doses. Add compounds to cell plate and incubate 1 h at 5% CO2&37° C. Add IFN-γ (0.1 ng/mL) to cell plate and incubate overnight at 5% CO2&37° C. Prepare QUANTI-Blue Solution: add 100 μl of QB reagent and 100 μl of QB buffer to 9800 μl sterile water. Use cell supernatant and QUANTI-Blue solution in proportion of 1 to 10, incubate 2 h at 37° C. Read OD630.

[3] = system: IL-2 reporter (JAK1/3); experiment: IL-2 reporter assay in HEK-Blue IL-2 cells; type: cell-based
Experimental: as §1, with “IL-2” for “IFN-γ”, “HEK-Blue™ IL-2” for “HEK-Dual™ IFN-γ”, “IL-2 (1” for “IFN-γ (0.1”

[4] = Dog PK; type: in vivo, Beagle dogs; details: for AUC(0-t) / Cmax: beagle, plasma
Experimental: Biological Example 7. Dog PK
Selected exemplified compounds of the present disclosure were also tested in dog for pharmacokinetic studies. The Beagle dogs were fasted overnight with free access to drinking water prior to treatment. All the dosing solutions were freshly prepared prior to dose administration. In intravenous administration animal group were given a single dose of compound at 1 mg·kg-1. Blood for plasma samples were collected at pre-dose, 5, 15, 30 min, 1, 2, 4, 8, 12 and 24 h through vein into tubes anticoagulated with EDTA-K2. In intragastric administration animal group were given a single dose of compound at 5 mg·kg-1. Blood for plasma samples (˜0.5 mL) were collected at pre-dose, 15, 30 min, 1, 2, 4, 8, 12 and 24 h post-dose through vein into tubes anticoagulated with EDTA-K2. Blood samples were inverted several times and were held on wet ice pending centrifugation. The samples were centrifuged (within 20 minutes of collection) in a centrifuge set at 4° C. for 10 minutes at 1500-1600 g to obtain plasma. Plasma samples were transferred and frozen immediately after separation and stored in a freezer set at below −70° C. prior to analysis.

[5] = biological target: N-terminal His-tagged TYK2 pseudokinase domain (Homo sapiens (Human), UniProt P29597); experiment: TYK2 JH2 domain SPA binding assay; details: displacement of H3 probe
N-terminal His-tagged TYK2 pseudokinase domain, sequence (P29597 589-875): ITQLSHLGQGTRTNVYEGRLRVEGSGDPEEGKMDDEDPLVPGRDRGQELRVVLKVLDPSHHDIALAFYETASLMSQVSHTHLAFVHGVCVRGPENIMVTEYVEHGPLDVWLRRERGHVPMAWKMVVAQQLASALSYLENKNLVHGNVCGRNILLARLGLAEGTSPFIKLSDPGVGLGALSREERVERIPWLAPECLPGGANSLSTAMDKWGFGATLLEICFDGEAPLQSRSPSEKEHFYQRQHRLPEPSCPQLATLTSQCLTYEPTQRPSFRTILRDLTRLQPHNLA
Experimental: TYK2 JH2 Domain Binding Assay
After incubating at room temperature for 30 min, the inhibition was calculated by the displacement of [3H] 3 binding as determined by scintillation counting.

[6] = biological target: Jak1 JH2 (Homo sapiens (Human), UniProt P23458); experiment: Jak1 JH2 HTRF binding; details: biochemical assay
Jak1 JH2, sequence (P23458 583-855): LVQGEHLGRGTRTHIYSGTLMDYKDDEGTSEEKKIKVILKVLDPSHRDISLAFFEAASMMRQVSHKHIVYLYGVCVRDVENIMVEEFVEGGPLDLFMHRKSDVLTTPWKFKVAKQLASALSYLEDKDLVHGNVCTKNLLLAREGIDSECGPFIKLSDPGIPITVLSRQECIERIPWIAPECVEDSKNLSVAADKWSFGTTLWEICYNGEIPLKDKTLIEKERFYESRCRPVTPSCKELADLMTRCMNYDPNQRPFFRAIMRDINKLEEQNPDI

[7] = system: IL-23-induced psoriasis; experiment: In vivo mouse psoriasis model induced by human IL-23; details: mice, 7.5, 15 and 30 mg/kg BID oral gavage
Experimental: Biological Example 6. In Vivo Mouse Psoriasis Model Selected exemplified compounds of the present disclosure were also tested in a mouse psoriasis model induced by human IL-23. Psoriasis was induced in 6-8-week-old C57BL/6J female mice (Charles River) by intradermal injection of recombinant human IL-23 into the left ear. IL-23 injections were administered every other day from day 1 through day 9 of the study. Selected compounds at 7.5, 15, and 30 mg/kg, with 15 mg/kg BMS986165 as positive control were dosed BID by oral gavage, with the first dose given the evening before first IL-23 injection. Ear thickness was measured every other day, prior to the ear injection.

[8] = system: IFNα/β reporter (JAK1/Tyk2); experiment: IFN-alpha/beta reporter assay in HEK-Blue IFN-a/b cells; type: cell-based; details: cellular assay
Experimental: as §1, with “IFN-alpha/beta” for “IFN-γ”, “HEK-Blue™ IFN-a/b cells” for “HEK-Dual™ IFN-γ Cells”, “IFN-alpha/beta (5 U/ml)” for “IFN-γ (0.1 ng/mL)”

[9] = system: IL-12/IL-18 induced IFN-gamma production; experiment: In vivo inhibition of IL-12/IL-18 induced IFN-gamma; details: mice, oral; for inhibition of IFNγ production (reduction compared to vehicle treated group): 10 mpk
Experimental: Biological Example 5. In Vivo Inhibition of IL-12/IL-18 Induced IFN-Gamma
Selected exemplified compounds of the present disclosure (compound Examples 4 and 5) and BMS986165 were dosed orally to female C57BL/6J mice (Charles River). One hour later, 0.05 μg of recombinant rat IL-12 was administered IV. Another hour later following IL-12 administration, 1 μg of recombinant rat IL-18 was administered IV. Three hours later, blood was collected and serum were obtained by centrifugation for analysis of IFNγ by ELISA.

[10] = Mouse PK; type: in vivo
[11] = HEK-Blue IL-23, cellular assay, Table 3 and text, read-out: IL-23 reporter assay (JAK2/Tyk2) IC50
[12] = HEK-Blue IL-23 cells, Table 2, read-out: IL23 reporter assay_IC50
[13] = cellular assay, read-out: IFNγ reporter assay (JAK1/2) IC50
[14] = HEK-Blue, cellular assay, read-out: IL-2 reporter assay (JAK1/3) IC50
[15] = intravenous, 1 mg/kg single dose, read-out: AUC0-t (IV)
[16] = po, intragastric, 5 mg/kg single dose
[17] = po, intragastric, 5 mg/kg single dose, read-out: AUC0-t (PO)
[18] = HEK-Blue IL-23, HEK-Blue IL-23 cells, Table 2, read-out: IL23 reporter assay_IC50
[19] = cellular assay, Table 3 and text, read-out: IL-23 reporter assay (JAK2/Tyk2) IC50
[20] = HEK-Blue, read-out: IC50 in IL-2 reporter assay (JAK1/3)

SMILES: [2H]C([2H])([2H])NC(=O)c1nnc(NC(=O)C2CC2)cc1Nc1cccc(-c2ncn(C)n2)c1OC [BMS-986165, reference compound]
IC50 [1, 11]: 3.5 nM | IC50 [1, 12]: 3.76 nM | IC50 [2, 13]: 1090 nM | IC50 [3, 14]: 221 nM | IC50 ([3]; cellular assay, read-out: IL-2 reporter assay (JAK1/3) IC50): 221 nM | AUC(0-t) [4, 15]: 3.8 µM·h | Cmax [4, 16]: 2.7 µM | AUC(0-t) [4, 17]: 22.3 µM·h

SMILES: [2H]C([2H])([2H])NC(=O)c1cnc(NC(=O)C2CC2)cc1Nc1cccc(C(=O)NCc2ccc(NC(=O)C=C)cn2)c1OC [Example 1, 4-((3-(((5-acrylamidopyridin-2-yl)methyl)carbamoyl)-2-methoxyphenyl)amino)-6-(cyclopropanecarboxamido)-N-(methyl-d3)nicotinamide]
IC50 [1, 12]: 318 nM | IC50 [5]: 27 nM

SMILES: [2H]C([2H])([2H])NC(=O)c1nnc(NC(=O)C2CC2)cc1Nc1cccc(-c2cc(=O)n(C3CC3)cn2)c1OC [Example 4, 6-(cyclopropanecarboxamido)-4-((3-(1-cyclopropyl-6-oxo-1,6-dihydropyrimidin-4-yl)-2-methoxyphenyl)amino)-N-(methyl-d3)pyridazine-3-carboxamide]
IC50 [1, 18]: 18 nM | IC50 [1, 11]: ~18 nM | IC50 [1, 19]: 18.3 nM | IC50 [6]: 4.99 nM | IC50 [2, 13]: > 10000 nM | IC50 ([2]; read-out: IC50 in IFN-gamma reporter assay (JAK1/2)): > 10000 nM | protection from IL-23-induced psoriasis (ear thickness), result in words [7]: dose-dependently protect mice from IL-23-induced psoriasis | IC50 [3, 14]: 696 nM | IC50 [3, 20]: > 10000 nM | IC50 ([8]; HEK-Blue): ~4 nM | IC50 [8]: 3.7 nM | inhibition of IFNγ production ([9]; 2.5 mpk): 52.7% | inhibition of IFNγ production ([9]; 5 mpk): 76.0% | inhibition of IFNγ production ([9]; 7.5 mpk): 88.6% | inhibition of IFNγ production (reduction compared to vehicle treated group) [9]: 93.3%

SMILES: [2H]C([2H])([2H])NC(=O)c1nnc(NC(=O)C2CC2)cc1Nc1cccc(-n2cnc(C)n2)c1OC [Example 5, 6-(cyclopropanecarboxamido)-4-((2-methoxy-3-(3-methyl-1H-1,2,4-triazol-1-yl)phenyl)amino)-N-(methyl-d3)pyridazine-3-carboxamide]
IC50 [1, 18]: 6 nM | IC50 [1, 11]: ~6 nM | IC50 [1, 19]: 6.1 nM | IC50 [6]: 13.2 nM | IC50 [2, 13]: > 10000 nM | protection from IL-23-induced psoriasis (ear thickness), result in words [7]: dose-dependently protect mice from IL-23-induced psoriasis | IC50 [3, 14]: > 10000 nM | IC50 [3, 20]: > 10000 nM | pharmacokinetic profile in dog compared to BMS986165, in words [4]: superior pharmacokinetic profile in dog compared to BMS986165 | AUC(0-t) [4, 15]: 6.4 µM·h | Cmax [4, 16]: 7.87 µM | AUC(0-t) [4, 17]: 47.5 µM·h | IC50 ([8]; HEK-Blue): ~5 nM | IC50 [8]: 4.6 nM | mouse PK profile compared to BMS986165, in words [10]: about the same with BMS986165 | inhibition of IFNγ production (reduction compared to vehicle treated group) [9]: greater than 93% | inhibition of IL-12/IL-18 induced IFNγ production, result in words ([9]; positive control BMS986165): efficacy similar to the positive control tested

SMILES: [2H]C([2H])([2H])NC(=O)c1nnc(NC(=O)C2CC2)cc1Nc1cc(F)cc(C2=NC3(CC3)C(=O)N2)c1OC [Example 9]
IC50 [1, 12]: 318 nM

SMILES: [2H]C([2H])([2H])NC(=O)c1nnc(NC(=O)C2CC2)cc1Nc1cccc(C2=NC3(CC3)C(=O)N2)c1OC [Example 10]
IC50 [1, 12]: 74 nM

SMILES: [2H]C([2H])([2H])NC(=O)c1cnc(NC(=O)C2CC2)cc1Nc1cccc(C2=NC3(CC3)C(=O)N2)c1OC [Example 11]
IC50 [1, 12]: 111 nM

Continued by falling IC50 [1, 12], values first:

IC50 [1, 12]: 71 nM
SMILES: [2H]C([2H])([2H])NC(=O)c1nnc(NC(=O)C2CC2)cc1Nc1cc(F)cc(-n2ncc(C)n2)c1OC [Example 14]

IC50 [1, 12]: 38 nM
SMILES: [2H]C([2H])([2H])NC(=O)c1nnc(NC(=O)C2CC2)cc1Nc1cccc(-n2ncc(C)n2)c1OC [Example 13]

IC50 [1, 12]: 25 nM
SMILES: [2H]C([2H])([2H])NC(=O)c1nnc(NC(=O)C2CC2)cc1Nc1cccc(-c2nc(=O)n(C)[nH]2)c1OC [Example 15]

IC50 [1, 12]: 18 nM | IC50 [5]: 30 nM
SMILES: [2H]C([2H])([2H])NC(=O)c1cnc(NC(=O)C2CC2)cc1Nc1cc(F)cc(-c2cc(=O)n(C3CC3)cn2)c1OC [Example 6]

IC50 [1, 12]: 15.7 nM | IC50 [5]: 5.56 nM
SMILES: [2H]C([2H])([2H])NC(=O)c1cnc(NC(=O)C2CC2)cc1Nc1cccc(C(=O)NCc2ccc(NC(=O)CCl)cn2)c1OC [Example 2, 4-((3-(((5-(2-chloroacetamido)pyridin-2-yl)methyl)carbamoyl)-2-methoxyphenyl)amino)-6-(cyclopropanecarboxamido)-N-(methyl-d3)nicotinamide]

IC50 [1, 12]: 15 nM
SMILES: [2H]C([2H])([2H])NC(=O)c1nnc(NC(=O)C2CC2)cc1Nc1cc(F)cc(-n2cnc(C)n2)c1OC [Example 12]

IC50 [1, 12]: 6.5 nM | IC50 [5]: 16.1 nM
SMILES: [2H]C([2H])([2H])NC(=O)c1cnc(NC(=O)C2CC2)cc1Nc1cccc(-c2cc(=O)n(C3CC3)cn2)c1OC [Example 3, 6-(cyclopropanecarboxamido)-4-((3-(1-cyclopropyl-6-oxo-1,6-dihydropyrimidin-4-yl)-2-methoxyphenyl)amino)-N-(methyl-d3)nicotinamide]
